Experimental data: paper PMC5472784, “Pyrazinamide and derivatives block ethylene biosynthesis by inhibiting ACC oxidase” (Nature Communications, 2017)
Read-outs that look alike come from different tables or passages of the source.

Key:
AtACO2 [1] = target: T1, AtACO2 (Arabidopsis thaliana, UniProt Q41931); test: ACO enzymatic activity assay and kinetic analysis (ethylene by GC-FID); assay type: biochemical
AtACO1 = target: T2, AtACO1 (Arabidopsis thaliana, UniProt Q9ZUN4); test: ACO enzymatic activity assay, kinetic analysis; assay type: biochemical; details: varying ACC, 200 μM POA, unit inferred
T2 sequence (Q9ZUN4 1-310): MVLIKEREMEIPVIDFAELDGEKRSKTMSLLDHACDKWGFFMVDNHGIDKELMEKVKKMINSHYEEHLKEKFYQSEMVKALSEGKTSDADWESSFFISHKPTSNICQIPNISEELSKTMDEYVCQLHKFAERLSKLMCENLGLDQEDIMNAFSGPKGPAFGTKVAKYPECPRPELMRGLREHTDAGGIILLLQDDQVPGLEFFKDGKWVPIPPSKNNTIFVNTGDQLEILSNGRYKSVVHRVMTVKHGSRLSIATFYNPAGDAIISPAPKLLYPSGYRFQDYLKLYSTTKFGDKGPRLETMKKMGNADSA
Method: (§1) The activity was performed following previously published protocol. The reaction mixture contains 50 mM MOPS, pH 7.4, 10% glycerol (v/v), 5 mM ascorbic acid, 20 mM NaHCO3, 0.02 mM FeSO4, 1 mM DTT, and different amounts of ACC and PZA/POA as indicated. The reaction was initiated by the addition of 5 μg ACO protein and immediately sealed with a rubber stopper. After incubation at 30 °C for 30 min with shaking, 100 μl of gas product was withdrawn by syringe from the headspace of the vial and injected into the GC-FID. The area of the ethylene peak was integrated with Agilent Chemstation and results were analysed using the program GraphPad Prism (version 5.01; GraphPad Software Inc., San Diego, CA, USA). The initial velocities were plotted against starting ACC concentrations in a double-reciprocal manner and the kinetic parameters were deduced.

AtACO3 = AtACO3 (Arabidopsis thaliana, UniProt O65378); test: ACO enzymatic activity assay, kinetic analysis; assay type: biochemical; details: varying ACC, 200 μM POA, unit inferred
AtACO3, sequence (O65378 whole entry): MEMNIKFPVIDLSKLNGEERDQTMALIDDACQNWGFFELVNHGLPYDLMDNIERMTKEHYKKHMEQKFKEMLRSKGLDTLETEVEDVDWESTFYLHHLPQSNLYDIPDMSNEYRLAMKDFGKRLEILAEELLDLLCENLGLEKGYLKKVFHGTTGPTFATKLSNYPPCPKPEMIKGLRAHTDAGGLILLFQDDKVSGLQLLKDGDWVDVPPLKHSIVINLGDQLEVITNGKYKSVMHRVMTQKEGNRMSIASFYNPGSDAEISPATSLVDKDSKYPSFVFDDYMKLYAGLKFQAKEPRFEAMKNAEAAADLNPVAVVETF
Method: as §1

AtACO4 = AtACO4 (Arabidopsis thaliana, UniProt Q06588); test: ACO enzymatic activity assay, kinetic analysis; assay type: biochemical; details: varying ACC, 200 μM POA, unit inferred
AtACO4, sequence (Q06588 whole entry): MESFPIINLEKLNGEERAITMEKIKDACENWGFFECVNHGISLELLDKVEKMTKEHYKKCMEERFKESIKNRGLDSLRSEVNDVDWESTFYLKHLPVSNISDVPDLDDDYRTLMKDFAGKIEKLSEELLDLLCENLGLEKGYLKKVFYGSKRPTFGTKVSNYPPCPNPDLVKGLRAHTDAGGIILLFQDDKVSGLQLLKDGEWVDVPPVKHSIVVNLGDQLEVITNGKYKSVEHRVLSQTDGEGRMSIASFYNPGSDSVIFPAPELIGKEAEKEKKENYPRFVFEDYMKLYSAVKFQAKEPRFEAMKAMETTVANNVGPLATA
Method: as §1

AtACO5 = target: T3, AtACO5 (Arabidopsis thaliana, UniProt Q0WPW4); test: ACO enzymatic activity assay, kinetic analysis; assay type: biochemical; details: varying ACC, 200 μM POA, unit inferred
T3 sequence (Q0WPW4 1-307): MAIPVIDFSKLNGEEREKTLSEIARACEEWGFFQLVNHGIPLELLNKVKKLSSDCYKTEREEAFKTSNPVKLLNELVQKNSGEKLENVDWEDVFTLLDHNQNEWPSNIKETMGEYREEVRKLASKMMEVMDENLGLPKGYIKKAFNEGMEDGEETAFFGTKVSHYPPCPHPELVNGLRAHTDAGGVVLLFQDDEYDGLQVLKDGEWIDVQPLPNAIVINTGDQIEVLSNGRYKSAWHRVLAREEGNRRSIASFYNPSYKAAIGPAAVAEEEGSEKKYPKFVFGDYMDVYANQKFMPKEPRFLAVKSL
Method: as §1

[2] = target: the other four ACO proteins in Arabidopsis (AtACO1, AtACO3, AtACO4 and AtACO5); test: ACO kinetic analysis, span over the other four ACO proteins; assay type: biochemical, Arabidopsis thaliana; details: span over AtACO1, 3, 4, 5
Method: as §1

AtACO2 [3] = target: T1, AtACO2; test: Isothermal titration calorimetry; assay type: binding; details: ITC, 25 °C, read-out: dissociation constant (KD), AtACO2
Method: (§2) ITC experiments were performed using a MicroCal iTC200 (GE Healthcare) at 25 °C. Small molecules and proteins were in the same buffer containing 25 mM Bis–Tris (pH 6.0), 150 mM NaCl, 0.1 mM ZnCl2 (or 0.2 mM FeSO4 for POA and AtACO2). The concentration of small molecules in the syringe was 1 mM, and the concentration of proteins in the cell was 90 μM. Data were analysed with a one-site model using Origin 7.0 (OriginLab).

[4] = target: T4, anthocyanidin synthase (ANS) (Arabidopsis thaliana, UniProt Q96323); test: Isothermal titration calorimetry; assay type: binding; details: ITC
T4 construct: GST; made in house
T4 sequence (Q96323 whole entry): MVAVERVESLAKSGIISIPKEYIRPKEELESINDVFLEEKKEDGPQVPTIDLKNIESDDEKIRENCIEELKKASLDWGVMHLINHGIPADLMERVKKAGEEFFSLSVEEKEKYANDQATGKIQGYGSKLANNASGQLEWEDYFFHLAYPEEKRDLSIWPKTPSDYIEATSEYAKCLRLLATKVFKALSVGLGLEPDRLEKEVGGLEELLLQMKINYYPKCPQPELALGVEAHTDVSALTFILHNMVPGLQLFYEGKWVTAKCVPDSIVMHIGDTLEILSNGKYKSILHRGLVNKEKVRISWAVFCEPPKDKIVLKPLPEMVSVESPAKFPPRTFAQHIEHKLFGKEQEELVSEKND
Method: as §2

[5] = target: T5, gibberellin C2 oxidase 2 (GA2OX2) (Arabidopsis thaliana, UniProt Q9XFR9); test: Isothermal titration calorimetry; assay type: binding; details: ITC
T5 construct: GST; made in house
T5 sequence (Q9XFR9 1-341): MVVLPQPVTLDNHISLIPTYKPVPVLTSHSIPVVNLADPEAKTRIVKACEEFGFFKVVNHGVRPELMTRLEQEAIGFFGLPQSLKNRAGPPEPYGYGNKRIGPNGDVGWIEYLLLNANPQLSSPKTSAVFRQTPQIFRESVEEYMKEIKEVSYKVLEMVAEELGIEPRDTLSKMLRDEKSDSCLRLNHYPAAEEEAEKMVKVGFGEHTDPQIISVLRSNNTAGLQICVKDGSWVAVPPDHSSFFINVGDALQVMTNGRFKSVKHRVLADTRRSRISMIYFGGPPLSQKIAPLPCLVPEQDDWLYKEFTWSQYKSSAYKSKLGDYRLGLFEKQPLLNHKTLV
Method: as §2

[6] = tested on: dioxygenase for auxin oxidation (DAO); test: Isothermal titration calorimetry; assay type: binding, Arabidopsis thaliana; details: ITC
Method: as §2

[7] = tested on: Arabidopsis etiolated seedlings (Col-0, eto1-2, ctr1-1, ein2-5); test: Ethylene response phenotype of 3-day-old etiolated seedlings (hypocotyl and root length, root hairs, root cells); assay type: in vivo, Arabidopsis thaliana; details: 3-day-old etiolated eto1-2 seedlings, MS medium with compound (50 μM shown)
[8] = tested on: ethylene production of Arabidopsis seedlings; test: Measurement of ethylene production of seedlings (GC-FID); assay type: in vivo, Arabidopsis thaliana; details: 100 μM ACC, 500 μM compound, 24 h
Method: Ethylene production was determined as follows: 30 3-day-old etiolated or 5-day-old green seedlings of Col-0, eto1-2 or other mutants were selected randomly and sealed in a 30 ml vial containing 3 ml liquid MS medium supplemented with indicated treatments. The vial was sealed with a rubber stopper for 24 h at 22 °C prior to ethylene sampling. A 250 μl sample of the headspace gas was withdrawn using a gas-tight syringe from each chamber through the septum stopper, and injected into a gas chromatograph (Agilent 6890NGC, Agilent Technologies, USA) that was equipped with a HP-PLOTQ column (40 m × 530 μm × 40 μm) and a flame ionization detector (FID)[44]. Separations were carried out at 60 °C using N2 as the carrier gas. The area of the ethylene peak was integrated with Agilent Chemstation and results were expressed as the average relative ethylene production (%) of each treatment.

AtACO2 [9] = target: T1, AtACO2; test: Fragmentation (stability) of purified AtACO2; details: 200 μM POA, 30 °C
Method: Purified AtACO2 was incubated with or without 200 μM POA at 30 °C in a buffer containing 50 mM MOPS, pH 7.2, 10% glycerol (v/v), 5 mM ascorbic acid, 20 mM NaHCO3, 0.02 mM FeSO4, 1 mM ACC and 1 mM DTT. At the indicated time point, the reaction was terminated by the addition of SDS-PAGE loading buffer followed by boiling. Fragmentation of AtACO2 was visualized on a SDS-PAGE gel.

T1 sequence (Q41931 1-303): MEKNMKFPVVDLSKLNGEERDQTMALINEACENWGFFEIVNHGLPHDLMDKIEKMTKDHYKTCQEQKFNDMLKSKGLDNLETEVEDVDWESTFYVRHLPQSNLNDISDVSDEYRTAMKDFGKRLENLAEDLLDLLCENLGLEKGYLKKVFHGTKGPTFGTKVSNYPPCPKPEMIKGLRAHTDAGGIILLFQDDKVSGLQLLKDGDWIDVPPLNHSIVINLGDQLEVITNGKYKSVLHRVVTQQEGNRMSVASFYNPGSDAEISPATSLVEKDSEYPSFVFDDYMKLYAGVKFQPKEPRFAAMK

O=C(O)c1cnccn1 [POA, pyrazinecarboxylic acid]
Ki (AtACO2 [1]; Lineweaver–Burk plots, varying ACC, 100, 200 or 300 μM POA, error represents s.d., read-out: Ki, AtACO2 inhibition): 89.8 ± 18.3 µM | mode of inhibition of ACO (AtACO2 [1]; double-reciprocal plots): competitive inhibitor | IC50 (AtACO2 [1]; recombinant AtACO2, ethylene by GC-FID, read-out: IC50, inhibition of AtACO2 activity): 72.1 ± 1.11 µM | Ki (AtACO1): 317 ± 90.4 µM | Ki (AtACO3): 187 ± 54.5 µM | Ki (AtACO4): 195 ± 73.3 µM | Ki (AtACO5): 722 ± 536 µM | Ki [2]: 187 to 722 µM | Kd (AtACO2 [3]; in the presence of Fe2+): 14.8 µM | Kd (AtACO2 [3]; in the presence of Zn2+): 10.2 µM | interaction with ANS [4]: no interaction | interaction with GA2OX2 [5]: no interaction | interaction with DAO [6]: no interaction | short-root and short-hypocotyl phenotype of eto1-2 [7]: specifically suppressed | ACC-induced ethylene production of Col-0 seedlings [8]: inhibited | stability of purified AtACO2 protein (AtACO2 [9]): did not obviously change
